Each structure is given as a SMILES string.

Assay [1] has as its target T1, GLS1 (purified recombinant human GAC) (Homo sapiens, UniProt O94925).
T1 sequence (O94925 55-598 isoform O94925-3 limits assumed): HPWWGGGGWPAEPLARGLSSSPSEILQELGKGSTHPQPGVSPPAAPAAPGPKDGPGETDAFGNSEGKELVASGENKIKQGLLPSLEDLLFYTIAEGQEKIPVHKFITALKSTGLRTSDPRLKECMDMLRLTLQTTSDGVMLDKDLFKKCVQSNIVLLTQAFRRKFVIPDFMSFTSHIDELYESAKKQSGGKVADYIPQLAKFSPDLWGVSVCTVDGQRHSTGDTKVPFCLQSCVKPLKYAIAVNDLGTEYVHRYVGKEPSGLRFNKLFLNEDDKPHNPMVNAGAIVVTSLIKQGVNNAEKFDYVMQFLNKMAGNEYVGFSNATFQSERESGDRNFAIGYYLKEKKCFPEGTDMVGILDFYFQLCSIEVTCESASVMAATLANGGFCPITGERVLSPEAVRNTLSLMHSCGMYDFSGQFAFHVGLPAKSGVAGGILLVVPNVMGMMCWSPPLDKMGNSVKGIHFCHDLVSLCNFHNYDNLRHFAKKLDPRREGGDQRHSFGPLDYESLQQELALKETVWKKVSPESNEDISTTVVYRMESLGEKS
As to the kind of experiment: GLS1 enzymatic activity assay (dual-coupled, Amplex UltraRed/resorufin). The format is biochemical. Summed up: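 GAC activity measured by coupling glutamate to glutamate oxidase and HRP, generating resorufin from Amplex UltraRed. Enzyme (2 nM) preincubated with 50 mM potassium phosphate 10 min at room temperature, then inhibitor 10 min; 1 mM glutamine substrate, 1% DMSO. Fluorescence 530/590 nm, kinetic or 20-min endpoint; IC50 from four-parameter logistic fit.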

For the next assay, the system named is A549 cells. In words: A549 proliferation (viability) assay, Cell Titer Fluor, 72 hours. It is filed as cell-based. The settings on record: Homo sapiens. Here is the method: A549 cells were routinely maintained in RPMI 1640 media (Gibco catalog number 11875-093) supplemented with 10% dialyzed fetal bovine serum using a humidified incubator (37° C., 5% CO2 and ambient O2). In preparation for the viability assay, cells were inoculated into 384-well black CulturPlates (Perkin Elmer) at a density of 1000 cells/well in a volume of 40 uL. Following a 24-hour incubation at 37° C., 5% CO2 and ambient O2, cells were treated with compound (10 uL) in a final DMSO concentration of 0.5% (v/v). The microplates were then incubated for 72 hours (37° C., 5% CO2 and ambient O2). Cell Titer Fluor (Promega) was subsequently added (10 uL of 6× reagent) and mixed for 15 minutes at room temperature. The plates were then incubated for 30 minutes (37° C., 5% CO2 and ambient O2) and fluorescence was subsequently read on the Perkin Elmer Envision plate reader. EC50 values were calculated using a four-parameter logistic curve fit.

Take `O=C(Cc1ccccc1)Nc1ccn(CCCCc2nnc(C(=O)NCc3cc(OC(F)(F)F)ccc3F)s2)c(=O)c1` [Example 458, N-{[2-fluoro-5-(trifluoromethoxy)phenyl]methyl}-5-{4-[2-oxo-4-(2-phenylacetamido)-1,2-dihydropyridin-1-yl]butyl}-1,3,4-thiadiazole-2-carboxamide]: the IC50 in assay [1] is under 0.1 µM. In the assay on A549 cells, the EC50 was under 0.1 µM.

Regarding `O=C(Cc1ccccc1)Nc1ccn(CCCCc2nnc(NC(=O)Cc3ccccc3)s2)c(=O)n1` [Example 73, N-(2-oxo-1-{4-[5-(2-phenylacetamido)-1,3,4-thiadiazol-2-yl]butyl}-1,2-dihydropyrimidin-4-yl)-2-phenylacetamide], the IC50 in assay [1] was under 0.1 µM. This compound had an EC50 in the assay on A549 cells of 0.5 to 5 µM.

`O=C(CC1CCC1)Nc1ccn(CCC(F)Cn2cc(C(=O)NCc3cccc(C(F)(F)F)n3)nn2)c(=O)c1F` (stereo not drawn) [Example 336, 1-{4-[4-(2-cyclobutylacetamido)-3-fluoro-2-oxo-1,2-dihydropyridin-1-yl]-2-fluorobutyl}-N-{[6-(trifluoromethyl)pyridin-2-yl]methyl}-1H-1,2,3-triazole-4-carboxamide]: the IC50 in assay [1] was under 0.1 µM. This compound also showed an EC50 in the assay with A549 cells of under 0.1 µM.

On to `CCN1CCC(CC(=O)Nc2ccn(CCCCn3cc(C(=O)NCc4cccc(C(F)(F)F)c4)nn3)c(=O)c2)CC1` [Example 156, 1-(4-{4-[2-(1-ethylpiperidin-4-yl)acetamido]-2-oxo-1,2-dihydropyridin-1-yl}butyl)-N-{[3-(trifluoromethyl)phenyl]methyl}-1H-1,2,3-triazole-4-carboxamide], for which the IC50 in assay [1] was 0.1 to 0.5 µM. The EC50 in the assay on A549 cells is 0.5 to 5 µM.

Regarding `O=C(CC1CCOCC1)Nc1ccn(CCCCn2cc(C(=O)NCc3cccc(OC(F)(F)F)c3)nn2)c(=O)c1` [Example 48, 1-(4-{4-[2-(oxan-4-yl)acetamido]-2-oxo-1,2-dihydropyridin-1-yl}butyl)-N-{[3-(trifluoromethoxy)phenyl]methyl}-1H-1,2,3-triazole-4-carboxamide], the concentration for half-maximal inhibition (IC50) in assay [1] is under 0.1 µM. This compound also registered an EC50 in the assay on A549 cells of 0.5 to 5 µM.

With `Nc1ccn(CCC(F)Cn2cc(C(=O)NCc3cncc(C(F)(F)F)c3)nn2)c(=O)c1F` (stereo not drawn) [Example 331, 1-[4-(4-amino-3-fluoro-2-oxo-1,2-dihydropyridin-1-yl)-2-fluorobutyl]-N-{[5-(trifluoromethyl)pyridin-3-yl]methyl}-1H-1,2,3-triazole-4-carboxamide], in assay [1], the IC50 lay in the range of 0.5 to 5 µM. Also, the EC50 in the assay on A549 cells is over 5 µM.

Consider `O=C(Cc1cccc(OC(F)(F)F)c1)Nc1ccn(CCCCn2ccc(NC(=O)Cc3cccc(OC(F)(F)F)c3)nc2=O)c(=O)n1` [Example 91, N-{2-oxo-1-[4-(2-oxo-4-{2-[3-(trifluoromethoxy)phenyl]acetamido}-1,2-dihydropyrimidin-1-yl)butyl]-1,2-dihydropyrimidin-4-yl}-2-[3-(trifluoromethoxy)phenyl]acetamide], for which the IC50 in assay [1] was under 0.1 µM. The compound further yielded an EC50 in the assay on A549 cells of 0.1 to 0.5 µM.

`O=C(NCc1cccc(OC(F)(F)F)c1)c1cn(CC(F)CCn2ccc(Cn3ccccc3=O)cc2=O)nn1` (stereo not drawn) [Example 479, 1-(2-fluoro-4-{2-oxo-4-[(2-oxo-1,2-dihydropyridin-1-yl)methyl]-1,2-dihydropyridin-1-yl}butyl)-N-{[3-(trifluoromethoxy)phenyl]methyl}-1H-1,2,3-triazole-4-carboxamide]: the 50% inhibitory concentration (IC50) in assay [1] fell in the range of 0.5 to 5 µM. The compound also came in with a half-maximal effective concentration (EC50) with A549 cells of 0.5 to 5 µM.

Take `N#CCC(=O)Nc1ccn(CCC(F)Cn2cc(C(=O)NCc3cccc(OC(F)(F)F)c3)nn2)c(=O)c1` (stereo not drawn) [Example 188, 1-{4-[4-(2-cyanoacetamido)-2-oxo-1,2-dihydropyridin-1-yl]-2-fluorobutyl}-N-{[3-(trifluoromethoxy)phenyl]methyl}-1H-1,2,3-triazole-4-carboxamide]: in assay [1], the 50% inhibitory concentration (IC50) was 0.5 to 5 µM. In addition, the EC50 with A549 cells was over 5 µM.

(Values after patent US20160002204A1 (Board of Regents, The University of Texas System, priority 2014, published 2016).)
